Measurements as given in patent US20250304568A1, “PYRIMIDINES FOR DEGRADING BRUTON'S TYROSINE KINASE” (AbbVie Inc., priority 2022, published 2025).

Legend:
[1] = tested on: TCL1-driven CLL bearing BTK^C481S mutation; test: TCL1-driven CLL bearing BTK^C481S mutation in C57BL/6 mice, circulating leukemia burden; format: in vivo
From the text: Eμ-TCL1 CLL transgenic mice (Crogen Pharmaceuticals LLC) were crossed with […] knock-in mice (AbbVie) to generate Eμ-TCL1 transgenic mice carrying the […] mutation. The leukemic splenocytes from these BTK^C481S Eμ-TCL1 transgenic mice (Passage 1) were transplanted intravenously into C57BL/6 mice, leading to CLL development in the peripheral blood and spleen. When circulating CLL burden (CD5+CD19+ cells as described below) in the recipient mice reached over 90%, their splenocytes (Passage 2) containing high CLL burden were cryopreserved and used for CLL efficacy studies. […]
To determine the absolute/total leukocyte numbers, complete blood counts were determined for each mouse using the Genesis™ veterinary hematology analyzer (Oxford Science Inc.).
Cells isolated from murine peripheral blood mononuclear cells (PMBCs) were collected to determine antigen expression. […] Cells were gated on CD45+, and thereafter the percentage of cells that were CD5+CD19+ from that subset was calculated. […]
Whole blood was collected weekly post tumor implantation via submandibular cheek bleeding. Circulating leukemic burden was calculated by multiplying absolute/total leukocyte count with the percentage of the leukocytes have the immunophenotype CD19^+CD5^+. […]

[2] = target: Human BTK enzyme, wild-type (Homo sapiens (Human), UniProt Q06187); test: BTK screening: Btk kinase activity, electrophoretic mobility shift assay (MSA); format: biochemical; conditions: 50 μM ATP, 0.5 nM BTK enzyme, 15 minutes pre-incubation
Procedure: Btk kinase activity was measured in vitro using an electrophoretic mobility shift assay (MSA). The ability of Btk to phosphorylate a fluorescent peptide substrate (FAM-GEEPLYWSFPAKKK-NH2) was measured. The kinase reactions were assembled in a total volume of 25 μL per well in 384 well plates. The following was added to each well: compound buffer (or control); enzyme buffer; and substrate buffer, as further described below. […]
The terminated reactions were analyzed using a 12 channel LABCHIP® 3000 microfluidic detection instrument (available from Caliper Life Sciences, Waltham, MA). […] As substrate and product peptides were separated, two peaks of fluorescence were observed. Change in the relative fluorescence intensity of the substrate and product peaks was the parameter measured, reflecting enzyme activity. […] Capillary electrophoregrams (RDA acquisition files) were analyzed using HTS Well Analyzer software (available from Caliper Life Sciences, Waltham, MA).
Activity in each sample was determined as the product to sum ratio (PSR): P/(S+P), where P was the peak height of the product peptide and S was the peak height of the substrate peptide. For each compound, enzyme activity was measured at various concentrations (12 concentrations of compound spaced by 3× dilution intervals). […]

[3] = target: His-tagged Cereblon/DDB1 complex (Homo sapiens (Human), UniProt Q96SW2); test: Cereblon binding assay (AlphaLISA Human Cereblon Binding Kit, competition); conditions: 10 μM top dose, biotinylated ligand competition; read-out: CRBN IC50
Procedure: Cereblon binding was measured in vitro using an AlphaLISA® Human Cereblon Binding Kit (PerkinElmer, Waltham, MA) according to the manufacturer's protocol (“Alpha” refers to Amplified Luminescent Proximity Homogeneous Assay). In this assay, donor beads and acceptor beads come into proximity through ligand binding to CRBN protein. Excitation of the donor beads provokes the release of singlet oxygen that triggers a cascade of energy transfer reactions to the acceptor beads, resulting in a sharp peak in light emission at 615 nm.
Specifically, nickel chelate acceptor beads (PerkinElmer AL108M) were used to capture a 6×HIS-tagged CRBN protein, and streptavidin-coated donor beads (PerkinElmer 6760002) were used to capture 50 nM biotinylated ligand. […]
Detection: 10 μL detection reagents were added in low light conditions containing nickel chelate acceptor beads and streptavidin donor beads (Perkin Elmer 6760002), resulting in a final concentration 20 μg/ml. Plates were incubated 1 hour and read on a PerkinElmer™ Envision™ plate reader (680 nm excitation and […] emission settings). The IC50 of each compound was determined by calculating percent inhibition from no drug and no protein controls, and the Ki of each compound was calculated using the Cheng-Prusoff transformation. From the Ki, the ICs50 values were determined. […]

| IC50 [2] | IC50 [3] | Structure (SMILES) | CLL burden control (no increase from the initial tumor burden) ([1]; Dosage 3 and Dosage 4, once daily (QD) for 19 days) | circulating leukemia burden (CD19+CD5+ CLL cells per μL) ([1]; once daily (QD) for 19 days, Dosage 1 to 4, dose-dependent manner, FIG. 1) |
| --- | --- | --- | --- | --- |
| – | – | Cc1cc(-c2cc(Nc3ccc(N4CCN(CCc5ccc(N6CCC(=O)NC6=O)cc5)C[C@@H]4C)cn3)ncn2)ccc1[C@@H](C)NC(=O)c1nc(C(C)(C)C)no1 [Example 1, 3-tert-butyl-N-[(1R)-1-{4-[6-({5-[(2S)-4-{2-[4-(2,4-dioxo-1,3-diazinan-1-yl)phenyl]ethyl}-2-methylpiperazin-1-yl]pyridin-2-yl}amino)pyrimidin-4-yl]-2-methylphenyl}ethyl]-1,2,4-oxadiazole-5-carboxamide] | Complete CLL burden control | controlled circulating leukemia burden |
| 106 pM | 6.31 µM | Cc1c([C@@H](C)NC(=O)c2nc(C(C)(C)C)no2)ccc(-c2cc(Nc3ccc(N4CCN(CCc5ccc(N6CCC(=O)NC6=O)cc5)C[C@@H]4C)cn3)ncn2)c1F [Example 10, 3-tert-butyl-N-[(1R)-1-{4-[6-({5-[(2S)-4-{2-[4-(2,4-dioxo-1,3-diazinan-1-yl)phenyl]ethyl}-2-methylpiperazin-1-yl]pyridin-2-yl}amino)pyrimidin-4-yl]-3-fluoro-2-methylphenyl}ethyl]-1,2,4-oxadiazole-5-carboxamide] | – | – |
| 97.3 pM | 2.15 µM | Cc1c([C@@H](C)NC(=O)c2nc(C(C)(C)C)no2)ccc(-c2cc(Nc3ccc(N4CCN(CCc5ccc(N6CCC(=O)NC6=O)cc5)CC4)cn3)ncn2)c1F [Example 11, 3-tert-butyl-N-{(1R)-1-[4-(6-{[5-(4-{2-[4-(2,4-dioxo-1,3-diazinan-1-yl)phenyl]ethyl}piperazin-1-yl)pyridin-2-yl]amino}pyrimidin-4-yl)-3-fluoro-2-methylphenyl]ethyl}-1,2,4-oxadiazole-5-carboxamide] | – | – |
